In patent US20240115557A1, “INHIBITORS OF RNA-GUIDED NUCLEASES AND USES THEREOF” (The Brigham and Women's Hospital, Inc., priority 2022, published 2024):

Molecular target: T1, SaCas9 (Staphylococcus aureus, UniProt J7RUA5)
T1 sequence (J7RUA5 1-1053): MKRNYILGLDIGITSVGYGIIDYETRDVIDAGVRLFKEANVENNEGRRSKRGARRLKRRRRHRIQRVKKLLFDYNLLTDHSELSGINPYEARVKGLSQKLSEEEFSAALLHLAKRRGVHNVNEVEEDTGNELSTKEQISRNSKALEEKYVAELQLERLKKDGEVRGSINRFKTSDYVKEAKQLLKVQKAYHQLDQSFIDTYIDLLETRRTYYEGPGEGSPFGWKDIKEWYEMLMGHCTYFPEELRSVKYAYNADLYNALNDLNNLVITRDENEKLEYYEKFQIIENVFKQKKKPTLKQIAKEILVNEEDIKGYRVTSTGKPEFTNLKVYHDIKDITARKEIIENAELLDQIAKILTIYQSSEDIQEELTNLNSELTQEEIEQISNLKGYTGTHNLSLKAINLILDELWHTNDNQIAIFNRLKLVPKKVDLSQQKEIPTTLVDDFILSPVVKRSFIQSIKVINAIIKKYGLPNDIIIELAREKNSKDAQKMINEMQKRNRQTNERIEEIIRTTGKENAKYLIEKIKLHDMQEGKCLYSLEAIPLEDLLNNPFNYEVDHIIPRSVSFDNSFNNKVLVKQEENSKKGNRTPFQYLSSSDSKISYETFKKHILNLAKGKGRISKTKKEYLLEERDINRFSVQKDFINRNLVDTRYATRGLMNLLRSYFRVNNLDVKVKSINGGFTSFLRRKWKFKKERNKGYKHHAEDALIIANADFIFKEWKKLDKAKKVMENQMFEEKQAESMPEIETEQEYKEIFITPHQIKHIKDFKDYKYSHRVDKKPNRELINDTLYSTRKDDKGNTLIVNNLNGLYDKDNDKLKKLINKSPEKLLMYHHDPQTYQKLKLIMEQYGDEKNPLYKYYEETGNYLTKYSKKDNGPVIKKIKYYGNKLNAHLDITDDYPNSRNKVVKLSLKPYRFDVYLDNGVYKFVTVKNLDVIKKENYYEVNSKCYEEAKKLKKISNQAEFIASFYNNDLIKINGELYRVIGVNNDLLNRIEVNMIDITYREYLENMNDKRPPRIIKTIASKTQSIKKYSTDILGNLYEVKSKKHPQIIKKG
Assay: Strand displacement assay, SaCas9 primary screen
Format: biochemical
Conditions: for Auto Zscore Rep 1 / Auto Zscore Rep 2 / Normalized Zscore Rep 1 / Normalized Zscore Rep 2: SaCas9 primary screen; for Auto Zscore Rep 1 / Normalized Zscore Rep 1: replicate 1; for Auto Zscore Rep 2 / Normalized Zscore Rep 2: replicate 2; for Normalized Zscore Rep 1 / Normalized Zscore Rep 2: weaker potential hits; for 3 sigma Hit: flag 1 = hit at 3 sigma; for 5 sigma Hit: flag 1 = hit at 5 sigma
Procedure: An overview of the screening for SaCas9 inhibitors is depicted in FIG. 14. A total of 43,168 Compounds were screened from the ICCB Libraries. Libraries screened for the initial compounds include ChemDiv 7 (34,848 cpds), Enamine 1 (5,280 cpds), ChemDiv1 (1,760 cpds), NIH Clinical Collection (450 cpds), Biomol 4—FDA Approved Library (640 cpds). A hit is determined from the Zscore, with 3-5σ being a weak hit, >5σ being a strong hit. The results of the hits include 193 Weak Hits and 249 Strong Hits. The NIH Clinical Collection 1-2014 was screened for 450 of 450 compounds, with 7 hits—1.5%. The Biomol 4—FDA Approved Library was screened for 640 of 640 compounds, with 8 hits—1.2%. […] Enamine 1 was screened for 5,280 of 6,004 compounds, with 44 hits—0.83%. Libraries are commercially available, with reference numbers utilized for compounds identifying the compound structures used. […]
Generalization of CAA to other Cas nucleases. Applicants sought to generalize CAA to other CRISPR-associated nucleases, including from Staphylococcus aureus (SaCas9). Given the similarities between SaCas9 and SpCas9 modes of DNA-substrate binding and protein folding,^26, 27 Applicants hypothesized that SaCas9-induced strand displacement could be similarly measured. Indeed, fluorescence quenching correlated with substrate cleavage in the CAA assay with active SaCas9:gRNA and an ACGGGT PAM sequence, which was validated with gel electrophoresis (FIG. 62F,G and FIG. 69F).
First, Applicants optimized various components and conditions of the strand displacement assay for Cas enzyme activity and generality with different Cas such as SpCas9 (FIG. 62B) or SaCas9 (FIG. 69F) or FnCas12a (FIG. 70A,B). Typically, SpCas9: gRNA (1:1.2 ratio) RNP was pre-formed at 1 μM in Cas9 assay buffer (20 mM Tris-HCl, pH=7.5, 100 mM KCl, 5 mM MgCl2) for 5 min at 4° C. before diluting to 10 nM in Cas9 assay buffer (2× final concentration). 25 μL of the Cas9 2× stock was manually dispensed to a black 384-well plate (Corning 3575) using electronic pipette. Apo SpCas9 (without guide RNA) was used at the same concentration as a control for no activity (mock inhibition). Following this, pre-annealed Alexa-Fluor 647 labeled substrate and quencher were also diluted to 1 nM and 5 nM in Cas9 assay buffer, respectively (2× stock solution). Next, 25 μL of the substrate/quencher solution was added manually to each well of the Cas9-containing 384-well plates using an electronic pipette and was incubated at 37° C. for 2.5 h. Fluorescent signals were read with the microplate reader set to read Alexa-Fluor 647 fluorescence. Assay was performed similarly with SaCas9 and FnCas12a using the respective enzyme, gRNA, substrate, and quencher oligos. Applicants similarly divulged the effect of PAM sequences of dsDNA on its assay specificity using TGG, TGC, AAC PAM containing substrates for SpCas9 (FIG. 62C), and ACGGGT, ACGGTT, TGCCCA PAM substrate for SaCas9 (FIG. 62F) and TTTC, TTGC, AAAG PAM substrates for FnCpf1 (FIG. 63B-C). Applicants also optimized the effective concentration of DS-AF647 and SS-AF647 fluorophores (FIG. 64A), DS-substrate to SpCas9 RNP ratio (FIG. 64B) and substrate to quencher ratio (FIG. 64C) on assay performance. Similarly, Applicants performed a time course experiment to establish the time required for maximum completion of the reaction at various substrate to SpCas9 RNP ratios (FIG. 64D).

Cc1cccc(Cn2c(SCC(O)CO)nc3c2c(=O)[nH]c(=O)n3C)c1 (stereo not drawn) [Compound D226-0165]
Auto Zscore Rep 1: −0.346 | Auto Zscore Rep 2: −0.1307 | Normalized Zscore Rep 1: 0.1224 | Normalized Zscore Rep 2: 0.1125 | 3 sigma Hit: 1

COc1ccc(-c2[nH]nc3nc(-c4ccc(O)c(O)c4)cc(C(=O)O)c23)cc1 [Cpd C202-1892]
Auto Zscore Rep 1: −1.82 | Auto Zscore Rep 2: −0.3926 | Normalized Zscore Rep 1: 0.4084 | Normalized Zscore Rep 2: 0.4043 | 3 sigma Hit: 1 | 5 sigma Hit: 1

c1ccc(CCCNc2nn3nnnc3c3ccccc23)cc1 [Cpd C301-8945]
Auto Zscore Rep 1: 0.8868 | Auto Zscore Rep 2: 0.9986 | Normalized Zscore Rep 1: 0.2248 | Normalized Zscore Rep 2: 0.1621 | 3 sigma Hit: 1

COc1ccc2cc3c(N)nn(C(=O)c4ccncc4)c3nc2c1 [Cpd C594-0003]
Auto Zscore Rep 1: −0.6022 | Auto Zscore Rep 2: 0.6643 | Normalized Zscore Rep 1: 0.2515 | Normalized Zscore Rep 2: 0.1978 | 3 sigma Hit: 1

COc1ccc2cc3c(N)nn(C(=O)c4ccc(F)cc4)c3nc2c1 [Cpd C594-0010]
Auto Zscore Rep 1: 0.8616 | Auto Zscore Rep 2: −0.4814 | Normalized Zscore Rep 1: 0.1698 | Normalized Zscore Rep 2: 0.2567 | 3 sigma Hit: 1

Cn1nc(-c2ccc(Cl)cc2)c2cc(C(=O)O)sc21 [Cpd C660-1021]
Auto Zscore Rep 1: 1.316 | Auto Zscore Rep 2: 1.188 | Normalized Zscore Rep 1: 0.2339 | Normalized Zscore Rep 2: 0.1885 | 3 sigma Hit: 1 | 5 sigma Hit: 1

Cc1nn2c(=O)cc(COc3ccc(C)c(C)c3)nc2s1 [Cpd C679-2752]
Auto Zscore Rep 1: 0.9351 | Auto Zscore Rep 2: −0.9427 | Normalized Zscore Rep 1: 0.5034 | Normalized Zscore Rep 2: 0.5292 | 3 sigma Hit: 1 | 5 sigma Hit: 1

Cc1nnc(NC(=O)CSc2ccc3nnc(-c4ccc(F)cc4)n3n2)s1 [Cpd C742-0312]
Auto Zscore Rep 1: −0.0443 | Auto Zscore Rep 2: −0.6268 | Normalized Zscore Rep 1: 0.1897 | Normalized Zscore Rep 2: 0.2665 | 3 sigma Hit: 1

Cc1nnc(NC(=O)CSc2ccc3nnc(-c4cccc(F)c4)n3n2)s1 [Cpd C742-0431]
Auto Zscore Rep 1: −0.06844 | Auto Zscore Rep 2: 0.2074 | Normalized Zscore Rep 1: 0.342 | Normalized Zscore Rep 2: 0.3107 | 3 sigma Hit: 1 | 5 sigma Hit: 1

O=C(c1ccccc1)c1cnc2ccc(F)cc2c1S(=O)(=O)c1ccc(F)cc1 [Cpd C770-0245]
Auto Zscore Rep 1: 0.1661 | Auto Zscore Rep 2: 0.1101 | Normalized Zscore Rep 1: 0.2065 | Normalized Zscore Rep 2: 0.1929 | 3 sigma Hit: 1

COc1cccc(CNCc2cccn2-c2sc(C)c(C)c2C(=O)O)c1 [Cpd C795-1664]
Auto Zscore Rep 1: 0.429 | Auto Zscore Rep 2: 0.8302 | Normalized Zscore Rep 1: 0.3494 | Normalized Zscore Rep 2: 0.3285 | 3 sigma Hit: 1 | 5 sigma Hit: 1

CCSc1nc2c(c(=O)[nH]1)C(c1ccc(O)c(O)c1)CC(=O)N2 (stereo not drawn) [Cpd D271-0002]
Auto Zscore Rep 1: −0.5592 | Auto Zscore Rep 2: 0.1026 | Normalized Zscore Rep 1: 0.2655 | Normalized Zscore Rep 2: 0.3207 | 3 sigma Hit: 1 | 5 sigma Hit: 1

O=C1CC(c2ccc(O)c(O)c2)c2c(nc(SCc3ccccc3)[nH]c2=O)N1 (stereo not drawn) [Cpd D271-0007]
Auto Zscore Rep 1: −1.4647 | Auto Zscore Rep 2: −0.1946 | Normalized Zscore Rep 1: 0.1942 | Normalized Zscore Rep 2: 0.18 | 3 sigma Hit: 1 | 5 sigma Hit: 1

Cc1ccc(CSc2nc3c(c(=O)[nH]2)C(c2ccc(O)c(O)c2)CC(=O)N3)cc1 (stereo not drawn) [Cpd D271-0008]
Auto Zscore Rep 1: −0.4729 | Auto Zscore Rep 2: −0.3637 | Normalized Zscore Rep 1: 0.198 | Normalized Zscore Rep 2: 0.181 | 3 sigma Hit: 1 | 5 sigma Hit: 1

O=C1CC(c2ccc(O)c(O)c2)c2c(nc(SCc3ccc(Cl)cc3)[nH]c2=O)N1 (stereo not drawn) [Cpd D271-0011]
Auto Zscore Rep 1: −2.7 | Auto Zscore Rep 2: −0.04169 | Normalized Zscore Rep 1: 0.1797 | Normalized Zscore Rep 2: 0.2066 | 3 sigma Hit: 1 | 5 sigma Hit: 1

O=C1CC(c2ccc(O)c(O)c2)c2c(nc(SCc3cccc(Cl)c3)[nH]c2=O)N1 (stereo not drawn) [Cpd D271-0012]
Auto Zscore Rep 1: 0.2548 | Auto Zscore Rep 2: 0.7649 | Normalized Zscore Rep 1: 0.1908 | Normalized Zscore Rep 2: 0.1893 | 3 sigma Hit: 1 | 5 sigma Hit: 1

CCOC(=O)c1c(NC(=O)CSc2nnc3cc(C)c4cccc(OC)c4n23)sc(C)c1C [Cpd D278-0687]
Auto Zscore Rep 1: 0.0101 | Auto Zscore Rep 2: 0.4839 | Normalized Zscore Rep 1: 0.1526 | Normalized Zscore Rep 2: 0.1495 | 3 sigma Hit: 1 | 5 sigma Hit: 1

Cn1c(=O)c2c(-c3ccccc3)n3c(c2n(C)c1=O)C(c1ccc(O)c(O)c1)Nc1ccccc1-3 (stereo not drawn) [Cpd D359-0009]
Auto Zscore Rep 1: −1.668 | Auto Zscore Rep 2: −0.1926 | Normalized Zscore Rep 1: 0.1601 | Normalized Zscore Rep 2: 0.1044 | 3 sigma Hit: 1 | 5 sigma Hit: 1

Cc1n[nH]c2c1C(c1ccc(O)c(O)c1)CC(=O)N2 (stereo not drawn) [Cpd D361-0120]
Auto Zscore Rep 1: −0.203 | Auto Zscore Rep 2: −0.05734 | Normalized Zscore Rep 1: 0.3533 | Normalized Zscore Rep 2: 0.2821 | 3 sigma Hit: 1 | 5 sigma Hit: 1

COc1ccc(C2CC(=O)C3=C(C2)Nc2onc(C)c2C3c2ccc(O)c(O)c2)cc1OC (stereo not drawn) [Cpd D588-0034]
Auto Zscore Rep 1: 0.4938 | Auto Zscore Rep 2: −1.181 | Normalized Zscore Rep 1: 0.2106 | Normalized Zscore Rep 2: 0.2618 | 3 sigma Hit: 1 | 5 sigma Hit: 1
